Data set [1] has as its target CREB-binding protein (Homo sapiens, UniProt Q92793). In words: Inhibition of CREBBP (unknown origin) by FRET assay.
For data set [2], the species on record is Homo sapiens. In words: Selectivity ratio of IC50 for BRD4 (unknown origin) to IC50 for CREBBP (unknown origin).
Data set [3] has as its target T1, Bromodomain-containing protein 4 (Homo sapiens, UniProt O60885). In words: Inhibition of BRD4 (unknown origin) by fluorescence polarization assay. (In general: Fluorescence polarisation rises when a labelled molecule tumbles more slowly, as on binding a larger partner.)
Data set [4] concerns the target T1, Bromodomain-containing protein 4. In words: Binding affinity to BRD4 (unknown origin) at 75 to 100 uM by isothermal titration assay. In general terms: ITC needs no label: the signal is the heat of the interaction.
Data set [5] in a line: Intrinsic clearance in human microsomes at 1 uM. The class given is ADME, Microsome.
Data set [6] concerns the target Voltage-gated L-type calcium channel (Homo sapiens, UniProt Q13936+Q13698+Q01668+O60840). In words: Inhibition of L-type calcium channel (unknown origin).
The target of data set [7] is Histone acetyltransferase p300 (Homo sapiens) (UniProt Q09472). In words: Inhibition of human EP300 (1040 to 1161 residues) expressed in bacterial expression system at 10 uM by bromoscan assay.
Sequence of Histone acetyltransferase p300 (Homo sapiens) (Q09472 whole entry, the tested form may be a part): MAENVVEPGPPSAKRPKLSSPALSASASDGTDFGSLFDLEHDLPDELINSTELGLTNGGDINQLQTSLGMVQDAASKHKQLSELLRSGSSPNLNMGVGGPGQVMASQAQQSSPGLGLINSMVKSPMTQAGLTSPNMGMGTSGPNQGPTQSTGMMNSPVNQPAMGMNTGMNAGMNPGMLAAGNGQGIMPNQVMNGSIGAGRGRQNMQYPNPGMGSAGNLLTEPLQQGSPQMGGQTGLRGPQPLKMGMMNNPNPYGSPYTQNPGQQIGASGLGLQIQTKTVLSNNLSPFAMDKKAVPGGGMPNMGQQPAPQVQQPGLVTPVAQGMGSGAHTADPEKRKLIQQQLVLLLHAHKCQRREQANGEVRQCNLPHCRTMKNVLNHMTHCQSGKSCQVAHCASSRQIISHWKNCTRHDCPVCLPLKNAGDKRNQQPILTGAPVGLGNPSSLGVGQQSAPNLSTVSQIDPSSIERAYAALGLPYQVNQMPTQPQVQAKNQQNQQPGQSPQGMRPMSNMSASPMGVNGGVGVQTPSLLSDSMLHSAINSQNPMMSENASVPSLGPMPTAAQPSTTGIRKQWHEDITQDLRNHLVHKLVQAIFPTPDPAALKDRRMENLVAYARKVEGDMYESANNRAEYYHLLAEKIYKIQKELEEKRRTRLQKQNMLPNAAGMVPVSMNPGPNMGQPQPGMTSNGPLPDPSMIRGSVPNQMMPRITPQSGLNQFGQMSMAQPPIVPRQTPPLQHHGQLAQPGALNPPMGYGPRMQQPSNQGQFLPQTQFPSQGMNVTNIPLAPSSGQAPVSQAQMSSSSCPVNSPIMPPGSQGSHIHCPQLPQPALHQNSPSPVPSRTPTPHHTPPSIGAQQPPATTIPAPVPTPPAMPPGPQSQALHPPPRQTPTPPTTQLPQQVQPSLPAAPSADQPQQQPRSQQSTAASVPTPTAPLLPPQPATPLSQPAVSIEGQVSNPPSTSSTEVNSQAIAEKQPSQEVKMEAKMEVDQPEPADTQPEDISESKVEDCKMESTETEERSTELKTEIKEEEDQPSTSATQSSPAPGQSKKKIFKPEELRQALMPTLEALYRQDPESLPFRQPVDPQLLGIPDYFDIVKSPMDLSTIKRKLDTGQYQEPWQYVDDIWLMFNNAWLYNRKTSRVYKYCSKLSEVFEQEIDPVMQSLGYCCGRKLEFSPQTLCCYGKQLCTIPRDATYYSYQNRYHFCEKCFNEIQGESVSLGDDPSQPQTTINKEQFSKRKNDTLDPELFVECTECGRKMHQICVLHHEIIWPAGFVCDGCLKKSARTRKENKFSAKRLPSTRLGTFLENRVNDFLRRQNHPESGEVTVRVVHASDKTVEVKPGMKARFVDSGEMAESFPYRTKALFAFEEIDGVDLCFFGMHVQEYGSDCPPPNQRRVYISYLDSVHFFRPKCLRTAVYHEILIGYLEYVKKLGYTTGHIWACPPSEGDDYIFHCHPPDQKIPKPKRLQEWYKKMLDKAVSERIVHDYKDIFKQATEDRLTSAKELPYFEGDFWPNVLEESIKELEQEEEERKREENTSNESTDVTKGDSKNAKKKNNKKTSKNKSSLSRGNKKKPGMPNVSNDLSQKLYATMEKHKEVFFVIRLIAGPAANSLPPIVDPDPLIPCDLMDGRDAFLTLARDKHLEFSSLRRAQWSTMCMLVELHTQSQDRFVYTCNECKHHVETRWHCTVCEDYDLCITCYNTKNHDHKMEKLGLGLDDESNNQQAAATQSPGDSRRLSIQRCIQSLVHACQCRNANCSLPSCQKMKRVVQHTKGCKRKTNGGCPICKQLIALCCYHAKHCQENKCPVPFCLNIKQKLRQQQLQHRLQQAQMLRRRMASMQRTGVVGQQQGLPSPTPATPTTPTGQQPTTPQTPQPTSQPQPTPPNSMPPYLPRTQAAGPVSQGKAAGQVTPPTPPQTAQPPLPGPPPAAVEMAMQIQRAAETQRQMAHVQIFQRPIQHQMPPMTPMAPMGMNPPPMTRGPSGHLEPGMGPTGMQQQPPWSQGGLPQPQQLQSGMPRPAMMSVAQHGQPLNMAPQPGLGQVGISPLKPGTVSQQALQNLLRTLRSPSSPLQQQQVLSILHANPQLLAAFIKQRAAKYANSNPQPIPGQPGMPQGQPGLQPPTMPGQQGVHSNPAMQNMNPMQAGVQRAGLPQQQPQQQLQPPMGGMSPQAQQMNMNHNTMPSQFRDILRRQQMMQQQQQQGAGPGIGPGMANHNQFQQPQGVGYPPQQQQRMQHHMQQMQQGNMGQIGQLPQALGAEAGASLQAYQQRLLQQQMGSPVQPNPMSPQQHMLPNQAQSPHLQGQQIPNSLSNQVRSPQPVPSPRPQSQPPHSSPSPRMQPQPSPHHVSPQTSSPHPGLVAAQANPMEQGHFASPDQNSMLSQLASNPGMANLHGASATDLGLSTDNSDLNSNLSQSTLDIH
Data set [8] can be described thus: Passive permeability of the compound at 2 uM by cell-based assay. The class given is physicochemical. Conditions: not told; read-out: permeability.
Data set [9] addresses T2, Alpha-1A adrenergic receptor (Homo sapiens, UniProt P35348).
T2 sequence (P35348 whole entry): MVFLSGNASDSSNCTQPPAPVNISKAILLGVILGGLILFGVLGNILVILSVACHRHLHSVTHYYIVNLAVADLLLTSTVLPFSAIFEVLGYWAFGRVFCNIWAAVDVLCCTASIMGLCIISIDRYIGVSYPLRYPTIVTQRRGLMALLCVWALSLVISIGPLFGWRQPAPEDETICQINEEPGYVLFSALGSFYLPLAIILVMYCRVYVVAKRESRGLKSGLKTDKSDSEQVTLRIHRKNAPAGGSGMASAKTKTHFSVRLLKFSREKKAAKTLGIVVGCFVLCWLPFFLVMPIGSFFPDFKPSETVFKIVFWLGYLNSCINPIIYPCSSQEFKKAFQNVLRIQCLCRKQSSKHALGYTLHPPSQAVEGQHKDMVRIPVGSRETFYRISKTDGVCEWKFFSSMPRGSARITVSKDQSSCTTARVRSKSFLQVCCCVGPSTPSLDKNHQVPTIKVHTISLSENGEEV
In words: Displacement of [3H]prazosin from recombinant human adrenergic A1a receptor after 60 mins by scintillation counting method. On the technique in general: Loss of bound radioactivity is the signal in a displacement assay; it reports binding, not function.

Data set [10] can be described thus: Lipophilicity, log D of the compound at pH 7.4 by shake flask method. The class given is physicochemical. The settings on record: buffer.
For data set [11], the target named is T1, Bromodomain-containing protein 4. In words: Inhibition of human BRD4 by fluorescence polarization assay.

This note sets out measurements from ChEMBL document CHEMBL4011614 (J Med Chem, 2017).

The source made the active and inactive calls. The calls are words filed in the database; no cut-off is given here.

Sequence of CREB-binding protein (Q92793 whole entry): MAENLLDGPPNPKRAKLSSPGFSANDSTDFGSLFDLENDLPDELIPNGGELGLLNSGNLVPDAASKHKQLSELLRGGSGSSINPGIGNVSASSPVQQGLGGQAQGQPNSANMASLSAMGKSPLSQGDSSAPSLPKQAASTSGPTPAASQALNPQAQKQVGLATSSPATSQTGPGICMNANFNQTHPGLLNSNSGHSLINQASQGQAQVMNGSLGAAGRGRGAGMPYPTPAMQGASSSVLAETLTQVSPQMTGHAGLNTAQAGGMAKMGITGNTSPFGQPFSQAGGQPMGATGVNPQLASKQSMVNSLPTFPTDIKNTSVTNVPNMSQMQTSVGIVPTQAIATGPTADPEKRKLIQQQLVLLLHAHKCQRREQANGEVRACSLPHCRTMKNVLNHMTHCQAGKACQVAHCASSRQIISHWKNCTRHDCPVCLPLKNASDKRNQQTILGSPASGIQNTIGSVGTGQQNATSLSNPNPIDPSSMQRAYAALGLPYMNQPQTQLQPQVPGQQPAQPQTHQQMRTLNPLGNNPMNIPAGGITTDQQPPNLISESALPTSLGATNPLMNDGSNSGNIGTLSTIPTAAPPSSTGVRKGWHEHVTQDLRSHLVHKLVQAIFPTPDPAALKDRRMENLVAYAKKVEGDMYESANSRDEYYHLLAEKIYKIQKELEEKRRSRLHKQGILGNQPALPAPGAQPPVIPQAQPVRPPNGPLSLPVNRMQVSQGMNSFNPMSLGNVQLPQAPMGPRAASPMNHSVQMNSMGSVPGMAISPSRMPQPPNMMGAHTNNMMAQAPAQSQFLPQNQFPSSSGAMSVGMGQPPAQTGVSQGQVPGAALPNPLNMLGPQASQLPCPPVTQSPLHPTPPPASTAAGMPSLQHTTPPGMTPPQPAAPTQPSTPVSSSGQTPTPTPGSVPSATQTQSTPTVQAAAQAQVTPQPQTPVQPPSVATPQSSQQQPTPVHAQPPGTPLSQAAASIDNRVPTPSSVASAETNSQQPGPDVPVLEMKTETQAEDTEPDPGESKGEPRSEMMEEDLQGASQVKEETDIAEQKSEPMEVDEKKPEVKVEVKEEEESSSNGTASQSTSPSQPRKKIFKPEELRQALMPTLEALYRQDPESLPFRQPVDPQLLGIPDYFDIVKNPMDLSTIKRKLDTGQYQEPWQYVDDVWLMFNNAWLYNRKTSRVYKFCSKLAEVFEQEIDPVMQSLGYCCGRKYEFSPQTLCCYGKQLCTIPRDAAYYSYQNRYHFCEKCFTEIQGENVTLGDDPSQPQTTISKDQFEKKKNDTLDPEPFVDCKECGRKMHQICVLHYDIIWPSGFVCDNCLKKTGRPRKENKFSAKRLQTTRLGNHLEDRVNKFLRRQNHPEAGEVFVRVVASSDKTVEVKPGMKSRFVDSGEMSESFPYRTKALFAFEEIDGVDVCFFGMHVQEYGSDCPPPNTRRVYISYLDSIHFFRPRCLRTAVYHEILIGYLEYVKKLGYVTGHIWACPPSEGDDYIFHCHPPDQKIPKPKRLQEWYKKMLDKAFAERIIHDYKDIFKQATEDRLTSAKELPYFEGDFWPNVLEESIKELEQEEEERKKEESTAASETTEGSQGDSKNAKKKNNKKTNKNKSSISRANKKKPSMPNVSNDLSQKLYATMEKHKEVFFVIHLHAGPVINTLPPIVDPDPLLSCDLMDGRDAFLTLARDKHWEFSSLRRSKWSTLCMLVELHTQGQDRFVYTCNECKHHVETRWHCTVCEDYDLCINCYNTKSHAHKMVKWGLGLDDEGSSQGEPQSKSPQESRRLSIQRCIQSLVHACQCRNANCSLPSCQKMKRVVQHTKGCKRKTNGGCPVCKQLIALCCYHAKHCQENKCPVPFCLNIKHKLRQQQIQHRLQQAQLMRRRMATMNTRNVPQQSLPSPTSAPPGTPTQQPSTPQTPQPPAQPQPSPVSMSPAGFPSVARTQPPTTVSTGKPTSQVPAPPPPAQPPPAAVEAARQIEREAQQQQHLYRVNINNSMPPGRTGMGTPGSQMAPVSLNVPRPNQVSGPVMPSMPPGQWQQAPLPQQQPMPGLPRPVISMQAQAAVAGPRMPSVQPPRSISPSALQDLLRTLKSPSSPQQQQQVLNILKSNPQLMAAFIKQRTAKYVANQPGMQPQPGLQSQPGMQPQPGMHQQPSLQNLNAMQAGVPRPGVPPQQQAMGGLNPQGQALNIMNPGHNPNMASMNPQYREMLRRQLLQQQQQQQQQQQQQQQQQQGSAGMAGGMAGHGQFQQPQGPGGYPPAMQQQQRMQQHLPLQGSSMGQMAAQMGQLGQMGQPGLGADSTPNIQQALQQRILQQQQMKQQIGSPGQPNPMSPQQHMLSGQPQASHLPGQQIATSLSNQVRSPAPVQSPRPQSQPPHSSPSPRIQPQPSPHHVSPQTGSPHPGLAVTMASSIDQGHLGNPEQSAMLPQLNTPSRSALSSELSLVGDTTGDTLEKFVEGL

On to `COc1cccc(CCc2nc3cc(-c4c(C)noc4C)ccc3n2CCN2CCOCC2)c1`, for which the IC50 is 310 nM in [1] and 4600 nM in data set [3]. Further, the Ratio IC50 in data set [2] turned out to be 15.

Take `Cc1noc(C)c1-c1ccc2c(c1)nc(CCc1ccncc1)n2CCN1CCOCC1`: the IC50 in [1] came to 400 nM; in data set [3], 4100 nM. The Ratio IC50 in data set [2] stood at 10.

As to `CCCOc1ccc(CCc2nc3cc(-c4c(C)noc4C)ccc3n2CCN2CCOCC2)cc1`, the result in data set [4] was inactive. The Ratio IC50 in [2] is 62. In [5], this compound yielded a microsomal CLint at 1 µM of over 300 µL/min/mg. The values for the IC50 in [6] and in [9] were 3000 nM and 620 nM, respectively. Also, the inhibition entry in data set [7] is “Active”. The Papp at 2 µM in data set [8] was found to be 7.9 ×10⁻⁶ cm/s.

Turning to `Cc1noc(C)c1-c1ccc2c(c1)nc(CCc1ccc(OC(C)C)cc1)n2CCN1CCOCC1`, the IC50 in [1] turned out to be 200 nM; in [3], 4500 nM. In addition, in data set [2], the Ratio IC50 is 23.

For the compound `Cc1noc(C)c1-c1ccc2c(c1)nc(CCc1ccc(N(C)C)cc1)n2CCN1CCOCC1`, the values for the IC50 in [1] and in data set [3] were 210 nM and 4300 nM, respectively. Moreover, in [2], the Ratio IC50 came to 20.

Take `Cc1noc(C)c1-c1ccc2c(c1)nc1n2[C@H](CN2CCOCC2)CC1Cc1ccccc1` (single isomer, unassigned; 32) [listing 1 of 2 here]: the figures for the IC50 in data set [1] and in [3] were 1300 nM and over 80000 nM, respectively.

In data set [3], `Cc1noc(C)c1-c1ccc2c(c1)nc(CCc1ccc(OC(F)(F)F)cc1)n2CCN1CCOCC1` registered an IC50 of 18500 nM.

With `CCOc1ccc(CCc2nc3cc(-c4c(C)noc4C)ccc3n2CCN2CCOCC2)cc1`, the 50% inhibitory concentration (IC50) was determined as 130 nM in data set [1] and 6600 nM in data set [3]. For the same compound, the Ratio IC50 in data set [2] came to 51.

On to `CCCCCOc1ccc(CCc2nc3cc(-c4c(C)noc4C)ccc3n2CCN2CCOCC2)cc1`, for which the IC50 is 690 nM in [1] and 6900 nM in [3]. In data set [2], the Ratio IC50 was 10.

As for `Cc1noc(C)c1-c1ccc2c(c1)nc1n2[C@H](CN2CCOCC2)CC1Cc1ccccc1` (single isomer, unassigned; 31) [listing 1 of 2 here], the values for the IC50 in data set [1] and in data set [3] were 450 nM and 2000 nM, respectively.

Consider `Cc1noc(C)c1-c1ccc2c(c1)nc1n2[C@H](CN2CCOCC2)CC1Cc1ccccc1` (single isomer, unassigned; 31) [listing 2 of 2 here], for which the Ratio IC50 in [2] was found to be 4.

Consider `Cc1noc(C)c1-c1ccc2c(c1)nc([C@@H]1CCO[C@H]1c1ccccc1)n2CCN1CCOCC1`, for which the IC50 in data set [1] turned out to be 76 nM; in data set [3] it was 490 nM. In data set [2], the Ratio IC50 is 6.

As for `COc1ccc(OCc2nc3cc(-c4c(C)noc4C)ccc3n2CCN2CCOCC2)cc1`, the IC50 is 920 nM in data set [1] and 9200 nM in data set [3]. The Ratio IC50 in data set [2] worked out at 10.

For `Cc1nc(C)n(-c2ccc3c(c2)nc(CCc2ccccc2)n3CCN2CCOCC2)n1`, the figures for the IC50 in data set [1] and in data set [3] were over 30000 nM and over 120000 nM, respectively.

As for `Cc1noc(C)c1-c1ccc2c(c1)nc(CCc1c[nH]c3ccccc13)n2CCN1CCOCC1`, the values for the IC50 in [1] and in [3] were 740 nM and 10100 nM, respectively. In addition, in [2], the Ratio IC50 is 14.

For the compound `COc1ccccc1CCc1nc2cc(-c3c(C)noc3C)ccc2n1CCN1CCOCC1`, the IC50 in [1] amounted to 980 nM; in [3], 13900 nM. Moreover, the Ratio IC50 in data set [2] was 14.

For the compound `Cc1noc(C)c1-c1ccc2c(c1)nc(CCc1ccc(N)cc1)n2CCN1CCOCC1`, the IC50 in data set [1] is 90 nM; in data set [3] it was 3400 nM. Moreover, the Ratio IC50 in data set [2] worked out at 38.

Turning to `COc1ccc(CCc2cc3nc(-c4c(C)noc4C)ccc3n2CCN2CCOCC2)cc1`, the IC50 in [1] is 170 nM; in [3], 18400 nM. In [10], this compound registered a logD of 3.29. For the same compound, in data set [2], the Ratio IC50 is over 100. Further, the inhibition entry in data set [7] was “Active”. In addition, in data set [8], the Papp at 2 µM is 6.8 ×10⁻⁶ cm/s.

Consider `CCc1noc(C)c1-c1ccc2c(c1)nc(CCc1ccccc1)n2CCN1CCOCC1`, for which the IC50 in data set [1] was 310 nM; in [3], 6000 nM.

`Cc1noc(C)c1-c1ccc2c(c1)nc(COc1ccccc1)n2CCN1CCOCC1`: the IC50 in [1] was determined as 400 nM; in data set [3], 14400 nM. The Ratio IC50 in data set [2] was determined as 36.

Consider `COc1cc(-c2ccc3c(c2)nc(CCc2ccccc2)n3CCN2CCOCC2)cccc1=O`, for which the IC50 in [1] was found to be 210 nM; in data set [3], 350 nM.

Turning to `CCCCOc1ccc(CCc2nc3cc(-c4c(C)noc4C)ccc3n2CCN2CCOCC2)cc1`, the IC50 was found to be 260 nM in [1] and 11200 nM in data set [3]. Moreover, in [2], the Ratio IC50 came out at 43.

In the case of `Cc1noc(C)c1-c1ccc2c(c1)nc(-c1cnn3c1CCC3)n2CCN1CCOCC1`, the IC50 in data set [1] came to 130 nM; in data set [3], 1600 nM. In addition, in data set [2], the Ratio IC50 is 12.

As for `COc1ccc(CCc2nc3cc(-c4c(C)noc4C)ccc3n2CCN2CCOCC2)cc1OC`, the 50% inhibitory concentration (IC50) in data set [1] was 470 nM; in data set [3] it was 9400 nM. Moreover, in [2], the Ratio IC50 is 20.

Regarding `Cc1n[nH]c(C)c1-c1ccc2c(c1)nc(CCc1ccccc1)n2CCN1CCOCC1`, the IC50 was 2400 nM in data set [1] and over 10000 nM in [3].

For `COc1ccc(CCc2cc3cc(-c4c(C)noc4C)ccc3n2CCN2CCOCC2)cc1`, the IC50 is 1500 nM in data set [1] and over 120000 nM in [3].

In the case of `CC(=O)Nc1ccc(CCc2nc3cc(-c4c(C)noc4C)ccc3n2CCN2CCOCC2)cc1`, the results for the IC50 in data set [1] and in data set [3] were 200 nM and 1400 nM, respectively. Moreover, the Ratio IC50 in [2] came to 7.

For the compound `COc1ccc(CCc2c(C#N)c3cc(-c4c(C)noc4C)ccc3n2CCN2CCOCC2)cc1`, the IC50 in data set [1] is 500 nM; in [3], over 120000 nM. Moreover, in data set [2], the Ratio IC50 was over 240.

`COc1ccc(CCc2nc3cc(-c4c(C)noc4C)ccc3n2CCN2CCOCC2)c(OC)c1`: the IC50 in data set [1] was determined as 240 nM; in [3], 8300 nM. In data set [2], the Ratio IC50 is 35.

In the case of `CCn1cc(-c2ccc3c(c2)nc(CCc2ccccc2)n3CCN2CCOCC2)ccc1=O`, the IC50 stood at 500 nM in [1] and 3900 nM in data set [3].

With `Cc1noc(C)c1-c1ccc2c(c1)nc(CCc1ccccn1)n2CCN1CCOCC1`, the IC50 in [1] stood at 330 nM; in data set [3] it was 3200 nM. Also, in data set [2], the Ratio IC50 came out at 10.

For the compound `Cc1noc(C)c1-c1ccc2c(c1)nc(CCc1ccc(C#N)cc1)n2CCN1CCOCC1`, the IC50 in [1] was found to be 300 nM; in data set [3], 4900 nM. In addition, the Ratio IC50 in data set [2] turned out to be 16.

As for `Cc1noc(C)c1-c1ccc2c(c1)nc(CCc1cncc3ccccc13)n2CCN1CCOCC1`, the results for the IC50 in data set [1] and in [3] were 2500 nM and 16800 nM, respectively. For the same compound, in data set [2], the Ratio IC50 came out at 7.

Take `Cc1noc(C)c1-c1ccc2c(c1)nc(CCc1ccccc1)n2CC(=O)N1CCOCC1`: the IC50 in data set [1] was 360 nM; in [3], 13200 nM. For the same compound, in [2], the Ratio IC50 was 37.

As for `Cc1noc(C)c1-c1ccc2c(c1)nc(CCc1ccccc1)n2CCN1CCOCC1`, the IC50 in data set [1] was determined as 240 nM; in data set [3], 4100 nM. Besides, in [2], the Ratio IC50 was determined as 17.

`Cc1noc(C)c1-c1ccc2c(c1)nc1n2[C@H](CN2CCOCC2)CC1Cc1ccccc1` (single isomer, unassigned; 32) [listing 2 of 2 here]: in data set [2], the Ratio IC50 is over 62.

`Cc1noc(C)c1-c1ccc2c(c1)nc(CCc1ccc3ccccc3n1)n2CCN1CCOCC1`: the 50% inhibitory concentration (IC50) turned out to be 160 nM in data set [1] and 4900 nM in data set [3]. For the same compound, the Ratio IC50 in data set [2] turned out to be 31.

In data set [11], `COc1ccc(CCc2nc3cc(-c4c(C)noc4C)ccc3n2C[C@H](C)N2CCOCC2)cc1Cl` came in with an IC50 of 5850 nM.

Take `COc1ccc([C@H]2OCC[C@@H]2c2nc3cc(-c4c(C)noc4C)ccc3n2CCN2CCOCC2)cc1`: the values for the IC50 in [1] and in data set [3] were 140 nM and 9400 nM, respectively. In addition, the Ratio IC50 in data set [2] was determined as 67.

In the case of `Cc1noc(C)c1-c1ccc2c(c1)nc(CCc1cccnc1)n2CCN1CCOCC1`, the IC50 turned out to be 780 nM in data set [1] and 5800 nM in [3]. The Ratio IC50 in data set [2] is 7.4.

As usually defined, the IC50 is the concentration that inhibits the measured activity by half. Usually microsomal CLint stands for the capacity of the preparation to metabolise the compound, expressed as a volume cleared per time. A lower microsomal CLint goes with slow turnover. As a reminder, the logD is the decadic logarithm of the distribution of all forms, ionised or not, between an organic phase and buffer at a given pH. Higher therefore signals higher lipophilicity.
